In data set [1] the test system is parental Ba/F3 cells + IL-3. Briefly: Ba/F3 proliferation assay, Parental + IL-3. Format: cell-based. The settings on record: Mus musculus, BaF3; Tables 7 and 8; read-out: Ba/F3 line IC50, Parental + IL-3. In a few lines: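 Ba/F3 cells were combined with drug dilutions plus growth factor (10 ng/mL IL-3, or 6.25 ng/mL NRG where needed) and incubated 48 h at 37 °C. Viability read by CellTiter-Glo, normalized to DMSO. Log(inhibitor)-response fit with variable slope; biological triplicates.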

A further data set deals with A431. The data set can be described thus: A431 cell proliferation. The data set is classed as cell-based. As to conditions: Homo sapiens, A-431; Table 8; n in the line below.
Another data set relates to HER2+/2VE Ba/F3 line. The data set can be described thus: Ba/F3 proliferation assay, HER2+/2VE. Format: cell-based. The settings on record: Mus musculus, BaF3; Tables 7 and 8. In a few lines: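 Ba/F3 cells combined with drug dilutions and growth factor as needed (10 ng/mL IL-3 or 6.25 ng/mL NRG), 48 h at 37° C. Proliferation by CellTiter-Glo, normalized to DMSO, fitted to log(inhibitor) vs response with variable slope; biological triplicates in technical triplicate.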

A further data set addresses T1, Axl+ Ba/F3 cells (Homo sapiens, UniProt P30530).
T1 sequence (P30530 1-894): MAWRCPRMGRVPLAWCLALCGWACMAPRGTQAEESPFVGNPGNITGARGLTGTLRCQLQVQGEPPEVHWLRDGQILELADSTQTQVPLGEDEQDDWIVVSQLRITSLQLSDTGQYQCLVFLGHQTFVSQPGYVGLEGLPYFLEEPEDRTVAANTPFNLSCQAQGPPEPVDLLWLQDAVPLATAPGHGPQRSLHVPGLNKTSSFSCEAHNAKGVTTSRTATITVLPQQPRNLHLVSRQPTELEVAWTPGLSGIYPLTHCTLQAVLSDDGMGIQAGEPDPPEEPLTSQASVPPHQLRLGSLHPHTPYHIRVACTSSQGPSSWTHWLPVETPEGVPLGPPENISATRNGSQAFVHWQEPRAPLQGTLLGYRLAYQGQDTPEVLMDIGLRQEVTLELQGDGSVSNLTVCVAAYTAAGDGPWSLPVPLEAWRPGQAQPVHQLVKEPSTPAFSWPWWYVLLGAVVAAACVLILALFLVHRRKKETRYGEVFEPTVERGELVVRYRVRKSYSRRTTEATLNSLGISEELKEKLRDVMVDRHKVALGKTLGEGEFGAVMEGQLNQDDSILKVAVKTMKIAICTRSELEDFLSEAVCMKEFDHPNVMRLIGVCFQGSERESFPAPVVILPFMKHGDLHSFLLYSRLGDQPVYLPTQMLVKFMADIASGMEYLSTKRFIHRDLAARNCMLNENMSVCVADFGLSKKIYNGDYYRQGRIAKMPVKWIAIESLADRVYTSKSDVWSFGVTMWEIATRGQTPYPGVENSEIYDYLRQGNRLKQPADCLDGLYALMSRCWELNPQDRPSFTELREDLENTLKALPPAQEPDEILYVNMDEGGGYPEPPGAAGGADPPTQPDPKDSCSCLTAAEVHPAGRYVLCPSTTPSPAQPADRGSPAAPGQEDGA
Briefly: Ba/F3 proliferation assay, Axl+. The data set is classed as cell-based. In a few lines:
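Ba/F3 cells transduced with Axl and selected for IL-3-independent growth. Cells combined with drug dilutions, and with IL-3 (10 ng/mL) or NRG (6.25 ng/mL) where needed, for 48 h at 37 °C. CellTiter-Glo read, normalized to DMSO, fitted with variable-slope log(inhibitor) regression.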

The target in data set [2] is 2YF/3wt + NRG Ba/F3 cells (HER2YF/HER3wt) (Homo sapiens, UniProt P04626, Y1005F/Y1023F/Y1112F/Y1127F/Y1139F/Y1196F/Y1221F/Y1222F/Y1248F, cells depend on it). The data set can be described thus: Ba/F3 proliferation assay, 2YF/3wt + NRG. The data set is classed as cell-based. In a few lines: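 Ba/F3 cells stably expressing HER3 and HER2 with 9 C-terminal Tyr→Phe mutations, selected for NRG dependence after IL-3 withdrawal. Cells were given DMSO or compound plus NRG (50 ng/mL final); proliferation normalized to DMSO, fit by log(inhibitor) vs response with variable slope.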

Another data set deals with NCI-H1975. The data set can be described thus: NCI-H1975 cell proliferation. Format: cell-based. The settings on record: Homo sapiens, Table 8, n in the line below.
The next data set has as its system HCC827. The data set can be described thus: HCC827 cell viability. Format: cell-based. As to conditions: Homo sapiens, compound at 1 nM, n in the line below, read-out: HCC827 (% viable at 1 nM).
Data set [3] is described as follows: Mouse Liver Microsome stability assay. Format: in vitro ADME. The settings on record: mouse liver microsomes.
Data set [4] relates to HER2YF/HER3E928G (2YF/3EG) Ba/F3 cells. The data set can be described thus: Ba/F3 proliferation assay, 2YF/3EG +/- NRG. Format: cell-based. The settings on record: + NRG vs no NRG. The text has this: Consistent with the results in the HER2 overexpressing cell lines, CW-2 cells that harbor a HER3-activating mutation were equally sensitive to compound 3+/−NRG in both proliferation and signaling assays (FIGS. 6A-6B). […] To further evaluate the potential of compound 3 against HER2 mutants within a HER2/HER3 heterodimer we transduced wt HER3 containing Ba/F3 cells with reported HER2 oncogenic mutants in the HER2YF construct.
For HER2YF/3EG Ba/F3 cells were selected according to the protocol for the HER2YF/3TM Ba/F3's with the exception that no NRG was supplemented in the media during IL-3 independent selection.
(§1) Proliferation Assays. For adherent cell lines, cells were plated onto opaque white 96 well plates (Greiner cat #655083) and allowed to adhere overnight. The following day media was changed to fresh media that contained either DMSO or the indicated concentration of drug plus NRG (50 ng/mL final concentration) as indicated. Plates were incubated at 37° C. for 72 h and proliferation was read out using Cell Titer Glo (Promega) according to the manufacturer's protocol. For Ba/F3 cell proliferation, cells, drug dilution, and any necessary growth factors (10 ng/mL IL-3 or 6.25 ng/mL NRG) were combined in a well of a 96 well plate. Plates were incubated at 37° C. for 48 h and proliferation was read out using Cell Titer Glo according to the manufacturer's protocol. For all normalized assays, proliferation was normalized to the DMSO control condition. All graphs were plotted in GraphPad Prism 6 and fit with a non-linear regression of the log(inhibitor) vs response with a variable slope where shown. All graphs are averages (+/−standard deviation) of biological triplicates each performed in technical triplicate unless otherwise noted. If only one biological replicate was performed standard deviations were derived from the technical replicates.

Data set [5] has as its system 2YF/3wt + IL-3 Ba/F3 cells. The data set can be described thus: Ba/F3 proliferation assay, 2YF/3wt + IL-3. The data set is classed as cell-based. As to conditions: Mus musculus, BaF3; Table 4; ± S.D., n = 3; 48 h Cell Titer Glo. On the procedure:
To validate the screen and test the effectiveness of counter-screening with either the same 2YF/3wt Ba/F3 cell line or the parental Ba/F3's in the presence of IL-3 to remove cytotoxic primary hits, we first tested a panel of kinase inhibitors with established mechanisms of action.
as §1

The mark [6] stands for this setting: Tables 7 and 8, read-out: Ba/F3 line IC50, Axl+.
Where [7] appears, read: Tables 7 and 8, read-out: Ba/F3 line IC50, HER2YF/HER3 + NRG.

Where two headings read alike, the source gives them in different places. A value given as a limit tells only on which side of the number the result lay.

Chain of 2YF/3wt + NRG Ba/F3 cells (HER2YF/HER3wt) (P04626 whole entry Y1005F/Y1023F/Y1112F/Y1127F/Y1139F/Y1196F/Y1221F/Y1222F/Y1248F): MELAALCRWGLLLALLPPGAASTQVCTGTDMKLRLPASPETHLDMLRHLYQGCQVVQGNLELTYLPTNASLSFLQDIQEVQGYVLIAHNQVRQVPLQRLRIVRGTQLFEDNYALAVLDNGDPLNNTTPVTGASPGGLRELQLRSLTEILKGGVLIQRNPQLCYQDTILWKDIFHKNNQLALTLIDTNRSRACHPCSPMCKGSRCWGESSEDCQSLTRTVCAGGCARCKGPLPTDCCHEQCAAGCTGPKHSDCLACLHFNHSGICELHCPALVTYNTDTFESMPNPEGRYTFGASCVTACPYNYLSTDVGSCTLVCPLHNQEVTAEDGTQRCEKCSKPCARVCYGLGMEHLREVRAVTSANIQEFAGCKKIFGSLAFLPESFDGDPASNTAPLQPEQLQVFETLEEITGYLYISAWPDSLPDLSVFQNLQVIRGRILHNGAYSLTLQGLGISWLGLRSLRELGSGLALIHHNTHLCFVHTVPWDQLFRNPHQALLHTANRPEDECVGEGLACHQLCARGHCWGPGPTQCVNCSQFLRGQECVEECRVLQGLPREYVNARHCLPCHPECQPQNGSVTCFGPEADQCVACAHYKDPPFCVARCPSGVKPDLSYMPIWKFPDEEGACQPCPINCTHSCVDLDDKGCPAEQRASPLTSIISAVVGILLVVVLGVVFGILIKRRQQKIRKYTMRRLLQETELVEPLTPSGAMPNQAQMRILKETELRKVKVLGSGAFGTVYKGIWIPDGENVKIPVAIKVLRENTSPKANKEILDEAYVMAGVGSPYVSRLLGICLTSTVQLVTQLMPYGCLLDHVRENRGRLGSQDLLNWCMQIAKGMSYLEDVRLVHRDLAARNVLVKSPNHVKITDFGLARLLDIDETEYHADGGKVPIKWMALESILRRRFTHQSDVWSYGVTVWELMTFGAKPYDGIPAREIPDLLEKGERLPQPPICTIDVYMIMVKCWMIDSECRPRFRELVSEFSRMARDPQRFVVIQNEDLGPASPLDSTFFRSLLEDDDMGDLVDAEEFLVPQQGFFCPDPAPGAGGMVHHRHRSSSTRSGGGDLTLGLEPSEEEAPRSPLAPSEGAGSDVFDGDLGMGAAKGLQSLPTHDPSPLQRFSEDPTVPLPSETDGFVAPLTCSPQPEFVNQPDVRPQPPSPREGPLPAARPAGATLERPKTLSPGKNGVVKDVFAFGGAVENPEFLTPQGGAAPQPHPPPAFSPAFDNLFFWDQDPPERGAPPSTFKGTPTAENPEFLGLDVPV

With `COc1ccc(-c2cccs2)cc1Nc1ncnc2[nH]cc(-c3cc[nH]n3)c12` [8-092], the IC50 was over 3330 nM in data set [1], 762 ± 215 nM with A431, 232 nM in the data set with HER2+/2VE Ba/F3 line and 1900 ± 134 nM in the data set with NCI-H1975. The values for the GI50 (on Axl+ Ba/F3 cells (setting [6]); in data set [2] (setting [7])) were 1200 nM and 20.5 nM, respectively. Besides, in the data set with HCC827, the viability at 0.001 µM stood at 81.6 ± 21.1%.

For the molecule `COc1ccc(-c2ccsc2)cc1Nc1ncnc2[nH]cc(-c3cc[nH]n3)c12` [8-091], the IC50 worked out at 2590 nM in [1], 634 ± 188 nM in the data set on A431, 120 nM in the data set on HER2+/2VE Ba/F3 line and 1420 ± 117 nM with NCI-H1975. Further, the GI50 was determined as 697 nM at Axl+ Ba/F3 cells (setting [6]) and 9.25 nM in [2] (setting [7]). In addition, the viability at 0.001 µM in the data set on HCC827 turned out to be 80.9 ± 24%.

As to `COc1ccc(-c2ccccc2)cc1Nc1ncnc2[nH]nc(-c3ccn(C)n3)c12` [8-097], the IC50 in data set [1] turned out to be 1770 nM; with A431, 290 ± 71 nM; with HER2+/2VE Ba/F3 line, 13.7 nM; in the data set on NCI-H1975, 507 ± 85.1 nM. The GI50 is 612 nM at Axl+ Ba/F3 cells (setting [6]) and 1 nM in data set [2] (setting [7]). In addition, the viability at 0.001 µM with HCC827 amounted to 29.5 ± 7.1%.

`COc1ccc(-c2ccccn2)cc1Nc1ncnc2[nH]cc(-c3cc[nH]n3)c12` [8-090]: the IC50 was found to be 2250 nM in data set [1], 911 nM with A431, 895 nM in the data set with HER2+/2VE Ba/F3 line and 2540 nM with NCI-H1975. The GI50 on Axl+ Ba/F3 cells (setting [6]) was 1570 nM; in data set [2] (setting [7]), 227 nM. Moreover, the viability at 0.001 µM in the data set with HCC827 amounted to 102%.

`CN(C)c1ccc(-c2ccsc2)cc1Nc1ncnc2[nH]nc(-c3cc[nH]n3)c12` [104A]: in data set [3], the “WuXi Microsomal stability (Mouse Extraction Ratio)” value came out at 0.87. The IC50 in [1] was determined as 1600 nM; in the data set on A431, 330 ± 125 nM; in the data set with HER2+/2VE Ba/F3 line, 48.5 nM; in the data set with NCI-H1975 it was 720 ± 30 nM. The GI50 came to 844 nM on Axl+ Ba/F3 cells (setting [6]) and 1.5 nM in [2] (setting [7]). The viability at 0.001 µM in the data set with HCC827 came to 29.8 ± 2.7%.

As for `CN(C)c1ccc(-c2ccsc2)cc1Nc1ncnc2[nH]nc(-c3ccn(C)n3)c12` [104B], the IC50 in [1] is about 2000 nM; in the data set on A431, 343 ± 169 nM; with HER2+/2VE Ba/F3 line, 46.4 nM; in the data set with NCI-H1975 it was 814 ± 59 nM. Further, the GI50 at Axl+ Ba/F3 cells (setting [6]) was determined as 1560 nM; in data set [2] (setting [7]), 1.5 nM. Also, in the data set on HCC827, the viability at 0.001 µM stood at 25.2 ± 3.4%.

As for `CC(C)(O)CC(=O)NCCn1ccc2ncnc(Nc3ccc(Oc4cccc(C(F)(F)F)c4)c(Cl)c3)c21` [TAK-285, reference compound], the “reduction of sensitivity on addition of NRG” value in [4] was found to be 40 fold. The IC50 in data set [5] is over 10000 nM. In addition, the GI50 at Axl+ Ba/F3 cells (Table 4, ± S.D., n = 3, 48 h Cell Titer Glo, read-out: IC50, Axl) is over 3330 nM; in data set [2] (Table 4, ± S.D., n = 3, 48 h Cell Titer Glo, read-out: IC50, 2YF/3wt + NRG), 399 ± 111 nM.

Take `COc1ccc(-c2ccoc2)cc1Nc1ncnc2[nH]cc(-c3cc[nH]n3)c12` [compound 178]: in data set [3], the “WuXi Microsomal stability (Mouse Extraction Ratio)” value was 0.948. The IC50 was 2540 nM in data set [1] and 70.3 nM in the data set on HER2+/2VE Ba/F3 line. In addition, the GI50 on Axl+ Ba/F3 cells (setting [6]) worked out at 1170 nM; in [2] (setting [7]), 6.8 nM.

Take `COc1ccc(-c2ccccc2)cc1Nc1ncnc2[nH]cc(-c3cc[nH]n3)c12` [8-089]: the IC50 in data set [1] worked out at 2440 nM; in the data set on A431, 914 ± 134 nM; with HER2+/2VE Ba/F3 line it was 118 nM; in the data set with NCI-H1975, 2250 ± 54 nM. Besides, the values for the GI50 (on Axl+ Ba/F3 cells (setting [6]); in data set [2] (setting [7])) were 1160 nM and 20.8 nM, respectively. The viability at 0.001 µM in the data set with HCC827 was found to be 99.9 ± 14.6%.

`COc1ccc(-c2ccccc2)cc1Nc1ncnc2[nH]cc(-c3ccn(C)n3)c12` [8-095]: the IC50 is over 3330 nM in data set [1], 1120 ± 59 nM in the data set with A431, 46.7 nM in the data set with HER2+/2VE Ba/F3 line and 1740 ± 157 nM in the data set on NCI-H1975. In addition, the GI50 is 1310 nM at Axl+ Ba/F3 cells (setting [6]) and 5 nM in [2] (setting [7]). For the same molecule, in the data set on HCC827, the viability at 0.001 µM was 49.2 ± 13.7%.

Regarding `COc1ccc(-c2ccccc2)cc1Nc1ncnc2[nH]nc(-c3cc[nH]n3)c12` [8-096], the IC50 was determined as 1540 nM in data set [1], 471 ± 63.4 nM in the data set on A431, 31.4 nM with HER2+/2VE Ba/F3 line and 891 ± 18.6 nM in the data set on NCI-H1975. The GI50 on Axl+ Ba/F3 cells (setting [6]) is 501 nM; in [2] (setting [7]), 2 nM. In addition, the viability at 0.001 µM in the data set with HCC827 was determined as 30.6 ± 4.2%.
